Legend:
[1] = test system: Mycosphaerella graminicola (Septoria tritici); test: Mycosphaerella graminicola (Septoria tritici)/Liquid Culture (Septoria Blotch); type: cell-based; conditions: Zymoseptoria tritici; 20 ppm; liquid culture; compared to untreated control
Outline: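 Conidia from cryogenic storage mixed into potato dextrose broth and added to microtiter wells already holding DMSO solutions of test compound. Activity expressed as percentage disease control.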

[2] = test system: Phaeosphaeria nodorum (Septoria nodorum); test: Phaeosphaeria nodorum (Septoria nodorum)/Wheat/Leaf Disc Preventative (Glume Blotch); type: in vivo; conditions: Parastagonospora nodorum, foliar, wheat leaf disc preventative, compared to untreated control
Outline: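 Wheat cv. Kanzler leaf discs on agar were sprayed with formulated compound diluted in water and inoculated with P. nodorum spores 2 days later. Discs kept at 20 °C, 75% rh, 12 h light/dark; percent disease control versus untreated scored 5–7 days after application.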

Sclerotinia sclerotiorum = test: Sclerotinia sclerotiorum/Liquid Culture (Cottony Rot); type: cell-based; conditions: liquid culture, compared to untreated control
Method: Mycelia fragments of a newly grown liquid culture of the fungus are directly mixed into nutrient broth (PDB potato dextrose broth). After placing a (DMSO) solution of test compound into a microtiter plate (96-well format) the nutrient broth containing the fungal material is added.

[3] = test system: Magnaporthe grisea (Pyricularia oryzae); test: whole plant or invertebrate; type: in vivo; conditions: foliar, read-out: control of Magnaporthe grisea
[4] = test system: Puccinia recondita f. sp. tritici; test: Puccinia recondita f. sp. tritici/Wheat/Leaf Disc Curative (Brown Rust); type: in vivo; conditions: foliar, wheat leaf disc curative, compared to untreated control
Outline: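 Curative leaf-disc test on wheat cv. Kanzler segments on agar, spore-inoculated and kept dark at 19° C, 75% rh; formulated compound in water applied 1 day after inoculation. Incubated at 19° C, 75% rh, 12 h light/12 h dark; percent disease control versus untreated scored 6-8 days after application.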

Phakopsora pachyrhizi = test: Phakopsora pachyrhizi/Soybean/Preventative (Soybean Rust); type: in vivo; conditions: foliar, 288 h, 200 ppm, soybean leaf disc preventative, compared to untreated control, read-out: control of Phakopsora pachyrhizi
Plasmopara viticola = test: whole plant or invertebrate; type: in vivo; conditions: foliar, read-out: control of Plasmopara viticola
[5] = test system: Mycosphaerella arachidis (Cercospora arachidicola); test: Mycosphaerella arachidis (Cercospora arachidicola)/Liquid Culture (Early Leaf Spot); type: cell-based; conditions: liquid culture, compared to untreated control
Outline: (§1)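 Conidia from cryogenic storage were mixed directly into potato dextrose broth, then added to microtiter wells already holding the test compound dissolved in DMSO. Fungal growth in liquid culture was then assessed.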

[6] = test system: Glomerella lagenarium (Colletotrichum lagenarium); test: Glomerella lagenarium (Colletotrichum lagenarium)/Liquid Culture (Anthracnose); type: cell-based; conditions: Colletotrichum orbiculare, liquid culture, compared to untreated control
Phytophthora infestans = test: whole plant or invertebrate; type: in vivo; conditions: in Solanum lycopersicum, foliar, read-out: control of Phytophthora infestans
[7] = test system: Puccinia recondita f. sp. tritici; test: Puccinia recondita f. sp. tritici/Wheat/Leaf Disc Preventative (Brown Rust); type: in vivo; conditions: foliar, 200 ppm, wheat leaf disc preventative, compared to untreated control, read-out: control of Puccinia recondita f. sp. tritici
[8] = test system: Monographella nivalis (Microdochium nivale); test: Monographella nivalis (Microdochium nivale)/Liquid Culture (Foot Rot Cereals); type: cell-based; conditions: liquid culture, compared to untreated control
Outline: as §1

[9] = test system: Thanatephorus cucumeris (Rhizoctonia solani); test: Thanatephorus cucumeris (Rhizoctonia solani)/Liquid Culture (Foot Rot, Damping-Off); type: cell-based; conditions: liquid culture, compared to untreated control
Method: Mycelia fragments of a newly grown liquid culture of the fungus are directly mixed into nutrient broth (PDB potato dextrose broth). After placing a (DMSO) solution of the test compounds into a microtiter plate (96-well format), the nutrient broth containing the fungal material is added.

[10] = test system: Botryotinia fuckeliana (Botrytis cinerea); test: Botryotinia fuckeliana (Botrytis cinerea)/Liquid Culture (Gray Mould); type: cell-based; conditions: liquid culture, compared to untreated control
Method: Conidia of the fungus from cryogenic storage are directly mixed into nutrient broth (Vogels broth). After placing a (DMSO) solution of test compound into a microtiter plate (96-well format), the nutrient broth containing the fungal spores is added.

[11] = test system: Blumeria graminis f. sp. tritici (Erysiphe graminis f. sp. tritici); test: Blumeria graminis f. sp. tritici/Wheat/Leaf Disc Preventative (Powdery Mildew on Wheat); type: in vivo; conditions: foliar, wheat leaf disc preventative, compared to untreated control
Outline: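 Wheat cv. Kanzler leaf segments on agar sprayed with formulated compound, inoculated with powdery mildew 1 day later and held at 20° C, 60% rh (24 h dark, then 12 h light/12 h dark). Percent disease control versus untreated scored 6-8 days after application.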

Pyrenophora teres = test: Pyrenophora teres/Barley/Leaf Disc Preventative (Net Blotch); type: in vivo; conditions: foliar, 200 ppm, barley leaf disc preventative, compared to untreated control, read-out: control of Pyrenophora teres
Outline: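 Formulated compound, diluted in water, sprayed onto barley cv. Hasso leaf segments on agar; spore suspension inoculation followed 2 days after application. Results expressed as percentage disease control.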

Alternaria solani = test: Alternaria solani/Tomato/Leaf Disc (Early Blight); type: in vivo; conditions: foliar, tomato leaf disc, compared to untreated control
Outline: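 Tomato cv. Baby leaf disks on agar were sprayed with diluted formulated compound and inoculated with spores 2 days later. Incubation at 23° C./21° C. day/night, 80% rh, 12/12 h light; percent disease control versus untreated scored 5-7 days after application.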

SMILES	inhibition of growth at 20 ppm [1]	pest or weed control at 200 ppm [2]	inhibition of growth at 20 ppm (Sclerotinia sclerotiorum)	pest or weed control at 200 ppm [3]	pest or weed control at 200 ppm [4]	pest or weed control at 200 ppm (Phakopsora pachyrhizi)	pest or weed control at 200 ppm (Plasmopara viticola)	melting point	inhibition of growth at 20 ppm [5]	inhibition of growth at 20 ppm [6]	pest or weed control at 200 ppm (Phytophthora infestans)	pest or weed control at 200 ppm [7]	inhibition of growth at 20 ppm [8]	inhibition of growth at 20 ppm [9]	inhibition of growth at 20 ppm [10]	pest or weed control at 200 ppm [11]	pest or weed control at 200 ppm (Pyrenophora teres)	pest or weed control at 200 ppm (Alternaria solani)
CO/C=C(\Oc1cc(-n2ccc(C(C)C)n2)cc(C)c1C)C(=O)OC [Compound E-20, methyl (Z)-2-[5-(3-isopropylpyrazol-1-yl)-2,3-dimethyl-phenoxy]-3-methoxy-prop-2-enoate]	≥ 80%	≥ 80%	≥ 80%	≥ 80%	≥ 80%	≥ 50%	≥ 80%	103 to 105 °C	≥ 80%	≥ 80%	≥ 80%	≥ 80%	≥ 80%	–	–	–	–	–
CO/C=C(\Oc1cc(-n2ccc(C(C)C(F)(F)F)n2)ccc1C)C(=O)OC (stereo not shown) [Compound E-23, methyl (Z)-3-methoxy-2-[2-methyl-5-[3-(2,2,2-trifluoro-1-methyl-ethyl)pyrazol-1-yl]phenoxy]prop-2-enoate]	≥ 80%	–	≥ 80%	–	≥ 80%	–	≥ 80%	119 to 122 °C	≥ 80%	≥ 80%	≥ 80%	≥ 80%	≥ 80%	≥ 80%	≥ 80%	–	–	–
C=C(c1ccn(-c2ccc(C)c(O/C(=C\OC)C(=O)OC)c2)n1)C(F)(F)F [Compound E-24, methyl (Z)-3-methoxy-2-[2-methyl-5-[3-[1-(trifluoromethyl)vinyl]pyrazol-1-yl]phenoxy]prop-2-enoate]	≥ 80%	≥ 80%	≥ 80%	≥ 80%	≥ 80%	–	≥ 80%	–	≥ 80%	≥ 80%	≥ 80%	≥ 80%	≥ 80%	≥ 80%	≥ 80%	≥ 80%	–	–
CO/C=C(\Oc1cc(-n2ccc(C3CCCCC3)n2)ccc1C)C(=O)OC [Compound E-36, methyl (Z)-2-[5-(3-cyclohexylpyrazol-1-yl)-2-methyl-phenoxy]-3-methoxy-prop-2-enoate]	≥ 80%	≥ 80%	≥ 80%	≥ 80%	≥ 80%	–	≥ 80%	85 to 89 °C	≥ 80%	≥ 80%	≥ 80%	≥ 80%	≥ 80%	≥ 80%	≥ 80%	–	≥ 80%	≥ 80%
CO/C=C(\Oc1cc(-n2ccc(C(F)(F)C(F)(F)F)n2)ccc1C)C(=O)OC [Compound E-69, methyl (Z)-3-methoxy-2-[2-methyl-5-[3-(1,1,2,2,2-pentafluoroethyl)pyrazol-1-yl]phenoxy]prop-2-enoate]	≥ 80%	–	≥ 80%	≥ 80%	≥ 80%	–	≥ 80%	117 to 120 °C	≥ 80%	≥ 80%	–	≥ 80%	≥ 80%	≥ 80%	–	≥ 80%	–	–
CCCCc1cnn(-c2ccc(C)c(O/C(=C\OC)C(=O)OC)c2)n1 [Compound F-3, methyl (Z)-2-[5-(4-butyltriazol-2-yl)-2-methyl-phenoxy]-3-methoxy-prop-2-enoate]	≥ 80%	≥ 80%	≥ 80%	≥ 80%	≥ 80%	–	≥ 80%	68 to 70 °C	≥ 80%	≥ 80%	–	≥ 80%	≥ 80%	–	–	–	–	–
CO/C=C(\Oc1cc(-n2ncc(C3CCCCC3)n2)ccc1C)C(=O)OC [Compound F-7, methyl (Z)-2-[5-(4-cyclohexyltriazol-2-yl)-2-methyl-phenoxy]-3-methoxy-prop-2-enoate]	≥ 80%	≥ 80%	≥ 80%	≥ 80%	≥ 80%	–	≥ 80%	120 to 122 °C	≥ 80%	≥ 80%	–	≥ 80%	≥ 80%	–	–	≥ 80%	≥ 80%	–

Reference: patent publication US12043600B2, “Microbiocidal compounds” (SYNGENTA CROP PROTECTION AG, priority 2018, dated 2024)
